Assay: photoluminescence quantum yield (fraction); solvent given as SMILES
[1] = in O=P(c1ccccc1)(c1ccccc1)c1ccccc1Oc1ccccc1P(=O)(c1ccccc1)c1ccccc1

CN(C)c1ccc(C2=Cc3ccc4ccccc4[n+]3[B-](F)(F)O2)cc1
photoluminescence quantum yield (in C1CCOC1): 0.517
photoluminescence quantum yield (in C1COCCO1): 0.735
photoluminescence quantum yield (in CC1CCCCC1): 0.862
photoluminescence quantum yield (in CC#N): 0.296
photoluminescence quantum yield (in CCOC(C)=O): 0.614
photoluminescence quantum yield (in CCOCC): 0.747
photoluminescence quantum yield (in CN(C)C=O): 0.187
photoluminescence quantum yield (in CO): 0.308
photoluminescence quantum yield (in COC(C)=O): 0.374
photoluminescence quantum yield (in ClC(Cl)Cl): 0.86

CC(=O)Nc1cccc2c1C#Cc1c(cccc1C(=O)N(C)C)OCCCO2
photoluminescence quantum yield (in CC#N): 0.005
photoluminescence quantum yield (in ClCCl): 0.012

Cc1ccc(-c2ccc(/C=C/c3ccc(C#N)cc3)cn2)nc1
photoluminescence quantum yield (in CC#N): 0.27

CCCCCCCCC1(CCCCCCCC)c2ccccc2-c2ccc(-c3nnc(-c4cccc(-n5c6ccc(C(C)(C)C)cc6c6cc(C(C)(C)C)ccc65)c4)o3)cc21
photoluminescence quantum yield (in Cc1ccccc1): 0.13

CC(C)[Si]1(C(C)C)c2cc(N(C)C)ccc2-c2ccc(C(F)(F)F)cc21
photoluminescence quantum yield (in C1CCCCC1): 0.37
photoluminescence quantum yield (in CC#N): 0.4
photoluminescence quantum yield (in CCO): 0.28
photoluminescence quantum yield (in CCOCC): 0.35
photoluminescence quantum yield (in CS(C)=O): 0.17
photoluminescence quantum yield (in ClCCl): 0.33
photoluminescence quantum yield (in c1ccccc1): 0.29

Cc1c2c(c(C)c3ccccc13)C1=C2C=CC2Nc3ccccc3NC12 (configuration not stated)
photoluminescence quantum yield (in ClC(Cl)Cl): 0.74

c1cc2cc(c1)c1ccc3ccc4ccc(cc4c3c1)c1ccc3ccc4ccc(cc4c3c1)c1cccc2c1
photoluminescence quantum yield (in Cc1ccccc1): 0.92

Nc1cccc[nH+]1
photoluminescence quantum yield (in O): 0.64

C[C@]12SC(=O)C=C1c1nc(-c3ccccc3)[nH]c1C1=CC(=O)S[C@@]12C
photoluminescence quantum yield (in CC#N): 0.16

c1ccc(-c2cc(-c3ccc(N4c5ccccc5C(c5ccccc5)(c5ccccc5)c5ccccc54)cn3)nc(-c3ccccc3)n2)cc1
photoluminescence quantum yield [1]: 0.86

c1ccc2c(c1)Oc1ccccc1N2c1ccc(-c2nnc(-c3ccc(N4c5ccccc5Oc5ccccc54)cc3)o2)cc1
photoluminescence quantum yield (in Cc1ccccc1): 0.431
photoluminescence quantum yield [1]: 0.87

CCN1C(=CC=Cc2n(CC)c3cc(Cl)c(Cl)cc3[n+]2CC)N(CC)c2cc(Cl)c(Cl)cc21
photoluminescence quantum yield (in CC#N): 0.024
photoluminescence quantum yield (in CCCCCCO): 0.058
photoluminescence quantum yield (in CCCCO): 0.042
photoluminescence quantum yield (in CCCO): 0.033
photoluminescence quantum yield (in CCO): 0.023
photoluminescence quantum yield (in CO): 0.016
photoluminescence quantum yield (in CS(C)=O): 0.055
photoluminescence quantum yield (in OCC(O)CO): 0.36
photoluminescence quantum yield (in OCCO): 0.075

CC1(C)OB(c2cc3ccc4cccc5ccc(c2)c3c45)OC1(C)C
photoluminescence quantum yield (in Cc1ccccc1): 0.72

CC1=[N+]2C(=C(NC(C)c3ccccc3)c3ccc(C)n3[B-]2(F)F)C=C1c1cc2n(c1)[B-](F)(F)[N+]1=CC=CC1=C2c1c(C)cc(C)cc1C (configuration not stated)
photoluminescence quantum yield (in C1CCCCC1): 0.31
photoluminescence quantum yield (in CCOC(C)=O): 0.05

COc1ccc(/C=C/C(=O)c2ccccc2O)cc1OC
photoluminescence quantum yield (in C1CCOC1): 0
photoluminescence quantum yield (in C1COCCO1): 0.072
photoluminescence quantum yield (in CC#N): 0.28
photoluminescence quantum yield (in CCCO): 0.37
photoluminescence quantum yield (in CCO): 0.15
photoluminescence quantum yield (in CN(C)C=O): 0.36
photoluminescence quantum yield (in CO): 0.24
photoluminescence quantum yield (in CS(C)=O): 0.47
photoluminescence quantum yield (in ClC(Cl)Cl): 0.053
photoluminescence quantum yield (in ClCCl): 0.037

CC(C)C1=c2c(c3[nH]cc(C(C)C)c3c3ccccc23)=[N+]2C1=Cc1c(C(C)C)c3c4ccccc4c4c(C(C)C)c[nH]c4c3n1[B-]2(F)F
photoluminescence quantum yield (in ClC(Cl)Cl): 0.63

c1ccc2c(-c3cc(-c4nccs4)nc(-c4nccs4)c3)c3ccccc3cc2c1
photoluminescence quantum yield (in CC#N): 0.134
photoluminescence quantum yield (in CCCCCC): 0.418
photoluminescence quantum yield (in CO): 0.0206
photoluminescence quantum yield (in ClC(Cl)Cl): 0.214

Cn1c2ccc(S(=O)(=O)Cl)cc2c(=O)c2cc(S(=O)(=O)Cl)ccc21
photoluminescence quantum yield (in CS(C)=O): 0.7

CCOC(=O)/N=c1/oc2cc(OC)ccc2cc1C#N
photoluminescence quantum yield (in ClCCl): 0.0065

COc1cc(OC)cc(C2=C3C(C)=C(I)C(/C=C/c4c[nH]c5ccccc45)=[N+]3[B-](F)(F)n3c(/C=C/c4c[nH]c5ccccc45)c(I)c(C)c32)c1
photoluminescence quantum yield (in C1CCOC1): 0.12
photoluminescence quantum yield (in CS(C)=O): 0.1
photoluminescence quantum yield (in ClCCl): 0.15

CCOC(=O)c1ccc(C2=Cc3cc4ccccc4cc3P2(=O)c2ccccc2)cc1 (configuration not stated)
photoluminescence quantum yield (in ClCCl): 0.54

CCCCCCCCC1(CCCCCCCC)c2ccccc2-c2ccc(N(c3ccc(-n4c5ccccc5c5ccccc54)cc3)c3ccc4c(c3)C(CCCCCCCC)(CCCCCCCC)c3ccccc3-4)cc21
photoluminescence quantum yield (in C1CCOC1): 0.24
photoluminescence quantum yield (in CC#N): 0.31
photoluminescence quantum yield (in CC(C)=O): 0.31
photoluminescence quantum yield (in CCCCCC): 0.27
photoluminescence quantum yield (in CCCCOCCCC): 0.25
photoluminescence quantum yield (in CCN(CC)CC): 0.27
photoluminescence quantum yield (in CCOC(C)=O): 0.3
photoluminescence quantum yield (in CCOCC): 0.37
photoluminescence quantum yield (in CN(C)C=O): 0.32
photoluminescence quantum yield (in Cc1ccccc1): 0.36
photoluminescence quantum yield (in ClCCl): 0.3
